Measurements published in patent US8299060B2, “Trans-4-[[(5S)-5-[[[3,5-bis(trifluoromethyl)phenyl]methyl] (2-methyl-2H-tetrazol-5-yl)amino]-2,3,4,5-tetrahydro-7,9-dimethyl-1H-1-benzazepin-1-yl]methyl]-cyclohexanecarboxylic acid” (Eli Lilly and Company, priority 2009, dated 2012).
Marks after values point to notes of the source that are not given here.

Key:
[1] = Hygroscopicity and degradation on storage at ambient temperature; format: physicochemical; details: stored at ambient temperature
[2] = Chemical stability: acid stability in 0.1N HCl at 40° C.; format: physicochemical
Procedure: Table 6 below lists the chemical stability of BCCA free acid as well as that of selected Examples 31, 89, 153, and 175 disclosed in WO 06/002342, renumbered below as compounds 13, 14, 15, and 16, respectively. […] This increased acid stability for BCCA free acid is not taught and cannot be predicted considering WO 06/002342.
Sample preparations: 1) Compound Stock: 0.9 mg/mL in ACN; 2) 100 μL stock+700 μL ACN+1 mL media (0.1N HCl, 50 mM PO4, pH 8, and 0.3% H2O2); 3) Place vials in heated (40° C.) autosampler, inject at 4 hour intervals for 16 or 24 hours.
Column: Alltech Alltima Phenyl, 3 μm, 4.6×150 mm or Waters XTerra MS C18, 3.5 μm, 4.6×150 mm Column temperature: 50° C., Injection volume: 10 μL. Detection: UV @ 226, 254 or 266 nm (depending on compound) Flow rate: 1.5 mL/min. Mobile phase: 0.1% TFA in 50% water/50% ACN (may need to adjust % ACN to keep compound peak retention time ˜5 min.) final sample conc. 0.05 mg/mL; ACN content 44%.

[3] = IV and PO pharmacokinetics in male Sprague Dawley rats; format: in vivo; details: 3 mg/kg PO; for F % (AUC Extrap.) ± sd: 1 mg/kg IV; for Cmax / Tmax: rat, plasma
Procedure: This following is to determine the pharmacokinetic parameters, including oral bioavailability, following a single 1 mg/kg intravenous bolus or a 3 mg/kg oral dose administration of the compound to male Sprague Dawley rats (n=4) in a crossover study design. The intravenous vehicle is 20% solutol microemulsion/80% deionized water. The oral vehicle is povidone USP 10%/SLS 0.5%/QS deionized water. In the intravenous arm, blood samples are collected at 0.08, 0.25, 0.5, 1, 2, 5, 8, 12, and 24 hours post-dose. In the oral arm, blood samples are collected at 0, 0.25, 0.5, 1, 2, 5, 8, 12, and 24 hours post-dose. Plasma is obtained by centrifugation, placed on ice, and frozen until samples are shipped on dry ice to Bioanalytical Systems, Inc. (BASi; West Lafayette, Ind.) for bioanalytical analysis. Concentrations of BCCA are determined by LC/MS/MS and pharmacokinetic parameters are calculated using a validated software program (Watson, Version 7.1). Other vehicles can be used to evaluate the bioavailability of BCCA including: 1% w/v sodium carboxymethyl cellulose, 0.25% w/v polysorbate 80 (Tween 80) and 0.05% 0.05% Dow Corning Antifoam 1510-US in purified water or; 1% w/v sodium carboxymethyl cellulose, 0.5% w/v sodium laurate sulfate, and 0.05% 0.05% Dow Corning Antifoam 1510-US in purified water in purified water each used either with or without sonification to facilitate dissolution of the compounds.

HDL cholesterol = experiment: In vivo assay of plasma lipids (HDL cholesterol elevation); set-up: species or system transgenic mice that express human CETP; details: 30 mpk oral dose, 79.5% corn oil, 20% oleic acid, 0.5% Lubrafil, CETP and Apo A1 heterozygote mice
Procedure: Syrian Golden Hamsters, which express endogenous CETP, can be used to assess the activity of the compounds in vivo. Test compounds are administered orally 30 mpk dose in a 79.5% corn oil, 20% oleic acid, 0.5% Lubrafil vehicle to a strain of transgenic mice that express human CETP (female or male CETP and Apo A1 heterozygote mice Taconic, Germantown, N.Y.). At various times after dosing, ranging from 4 h to 48 h, blood/plasma can be obtained. The CETP activity can be determined by a method similar to that described above for the in vitro CETP activity assay, with the modification that plasma from the treated animals is used as the CETP source in the assay.
Activity of compounds of this invention in vivo can be evaluated by comparing the level of elevation of HDL cholesterol relative to a control by a given amount of a compound in a CETP-containing animal species. The test compounds are administered as described above for the in vivo assay of CETP activity. […] The HDL cholesterol levels in the serum can be determined by known procedures using HDL-C plus reagents (Roche/Hitachi, Indianapolis, Ind.) with a clinical chemistry analyzer (Roche/Hitachi, Indianapolis, Ind.). Additional serum lipids can be analyzed by enzymatic methods. Lipids in the VLDL, LDL and HDL fractions are analyzed by enzymatic methods after precipitation or size exclusion chromatography. […]

human CETP = biological target: T1, human CETP (Homo sapiens, UniProt P11597); experiment: In vivo assay of CETP activity; set-up: species or system transgenic mice that express human CETP; details: 30 mpk oral dose, 79.5% corn oil, 20% oleic acid, 0.5% Lubrafil; CETP and Apo A1 heterozygote mice; 8 hr; read-out: % CETP Inhib 8 hr
T1 construct: plasma from the treated animals is used as the CETP source in the assay; tissue Taconic; host or cells: plasma of transgenic mice expressing human CETP (CETP and Apo A1 heterozygotes)
T1 sequence (P11597 18-493): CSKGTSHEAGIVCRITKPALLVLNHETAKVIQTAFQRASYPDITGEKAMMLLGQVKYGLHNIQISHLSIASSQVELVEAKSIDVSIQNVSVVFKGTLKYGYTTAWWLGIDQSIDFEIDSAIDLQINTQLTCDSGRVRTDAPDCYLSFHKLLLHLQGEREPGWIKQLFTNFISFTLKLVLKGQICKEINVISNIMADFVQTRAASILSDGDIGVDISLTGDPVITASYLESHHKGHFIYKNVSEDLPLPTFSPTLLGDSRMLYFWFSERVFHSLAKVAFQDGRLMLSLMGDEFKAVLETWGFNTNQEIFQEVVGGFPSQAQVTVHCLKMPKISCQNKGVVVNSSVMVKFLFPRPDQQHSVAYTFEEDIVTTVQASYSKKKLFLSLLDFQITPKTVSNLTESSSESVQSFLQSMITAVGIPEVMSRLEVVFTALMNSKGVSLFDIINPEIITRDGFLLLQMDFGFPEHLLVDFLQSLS
Excerpt: An in vitro Scintillation Proximity Assay (SPA) has been used to evaluate the ability of compounds of this invention to inhibit the transfer of radiolabeled cholesterol esters between HDL and LDL. This assay monitors the inhibition of the transfer of [^3H]cholesterol esters from HDL (Amersham) to biotinylated LDL (Amersham) by a CETP source. The CETP source for this assay can be produced by AV-12 cells that have been created to express human CETP. The radiolabeled cholesterol ester is transferred in a HEPES-NaCl based buffer, after thirty minutes incubation the reaction is stopped and the biotinylated LDL is bound to streptavidin/scintillant coated SPA beads (Amersham). The radioactive signal is measured in a Packard 96-well scintillation TopCounter with window settings fully open. A decrease in radioactive signal from the LDL relative to a standard indicates the ability of compounds to inhibit the activity of CETP.
Syrian Golden Hamsters, which express endogenous CETP, can be used to assess the activity of the compounds in vivo. […] The CETP activity can be determined by a method similar to that described above for the in vitro CETP activity assay, with the modification that plasma from the treated animals is used as the CETP source in the assay.

hygroscopicity [1] | Acid Stability, percent remaining, 8 hrs [2] | Acid Stability, percent remaining, 24 hrs [2] | Compound | other results
non-hygroscopic |  |  | CC(C)(C)N.CCO.Cc1cc(C)c2c(c1)[C@@H](N(Cc1cc(C(F)(F)F)cc(C(F)(F)F)c1)c1nnn(C)n1)CCCN2C[C@H]1CC[C@H](C(=O)O)CC1.Cc1cc(C)c2c(c1)[C@@H](N(Cc1cc(C(F)(F)F)cc(C(F)(F)F)c1)c1nnn(C)n1)CCCN2C[C@H]1CC[C@H](C(=O)O)CC1 (relative stereo) [Example 15, Trans-4-[[(5S)-5-[[[3,5-bis(trifluoromethyl)phenyl]methyl](2-methyl-2H-tetrazol-5-yl)amino]-2,3,4,5-tetrahydro-7,9-dimethyl-1H-1-benzazepin-1-yl]methyl]-cyclohexanecarboxylic acid hemi tert-butylamine salt hemi ethanol (2:1:1) solvate in crystalline form] | 
 | 52% | 13.4% | Cc1cc2c(cc1C(F)(F)F)N(Cc1ccc(C(=O)O)cc1)CCC[C@@H]2N(Cc1cc(C(F)(F)F)cc(C(F)(F)F)c1)c1nnn(C)n1 [Compound 14, (S)-4-{5-[(3,5-Bis-trifluoromethyl-benzyl)-(2-methyl-2H-tetrazol-5-yl)-amino]-7-methyl-8-trifluoromethyl-2,3,4,5-tetrahydro-benzo[b]azepin-1-ylmethyl}-benzoic acid] | 
 | 37.8% |  | Cc1cc2c(cc1C(F)(F)F)N(C1CCC(C(=O)O)CC1)CCC[C@@H]2N(Cc1cc(C(F)(F)F)cc(C(F)(F)F)c1)c1nnn(C)n1 (stereo partly drawn) [Compound 16] | Acid Stability, percent remaining after 16 hrs ([2]; 16 hrs (footnote *)): 13.4* Percent
non-hygroscopic |  |  | Cc1cc(C)c2c(c1)[C@@H](N(Cc1cc(C(F)(F)F)cc(C(F)(F)F)c1)c1nnn(C)n1)CCCN2C[C@H]1CC[C@H](C(=O)O)CC1.O (relative stereo) [Example 5, Trans-4-[[(5S)-5-[[[3,5-bis(trifluoromethyl)phenyl]methyl](2-methyl-2H-tetrazol-5-yl)amino]-2,3,4,5-tetrahydro-7,9-dimethyl-1H-1-benzazepin-1-yl]methyl]-cyclohexanecarboxylic acid hydrate in crystalline form] | 

The next lines start with the molecule.

Compound | hygroscopicity [1] | Acid Stability, percent remaining, 8 hrs [2] | Acid Stability, percent remaining, 24 hrs [2] | other results
CC(C)(C)N.CC(C)O.Cc1cc(C)c2c(c1)[C@@H](N(Cc1cc(C(F)(F)F)cc(C(F)(F)F)c1)c1nnn(C)n1)CCCN2C[C@H]1CC[C@H](C(=O)O)CC1 (relative stereo) [Example 14, Trans-4-[[(5S)-5-[[[3,5-bis(trifluoromethyl)phenyl]methyl](2-methyl-2H-tetrazol-5-yl)amino]-2,3,4,5-tetrahydro-7,9-dimethyl-1H-1-benzazepin-1-yl]methyl]-cyclohexanecarboxylic acid tert-butylamine isopropyl alcohol (1:1:1) solvate] | non-hygroscopic |  |  | 
[O-][n+]1ccccc1[S-].[O-][n+]1ccccc1[S-].[Zn+2] [zinc salt] | essentially non-hygroscopic |  |  | 
Cc1cc(C)c2c(c1)[C@@H](N(Cc1cc(C(F)(F)F)cc(C(F)(F)F)c1)c1nnn(C)n1)CCCN2C[C@H]1CC[C@H](C(=O)O)CC1.O (relative stereo) [Example 3, Trans-4-[[(5S)-5-[[[3,5-bis(trifluoromethyl)phenyl]methyl](2-methyl-2H-tetrazol-5-yl)amino]-2,3,4,5-tetrahydro-7,9-dimethyl-1H-1-benzazepin-1-yl]methyl]-cyclohexanecarboxylic acid•Hydrate] |  |  |  | degradation on storage [1]: minor or very little degradation
Cc1cc(C)c2c(c1)[C@@H](N(Cc1cc(C(F)(F)F)cc(C(F)(F)F)c1)c1nnn(C)n1)CCCN2C[C@H]1CC[C@H](C(=O)O)CC1 [Ex 1, Trans-4-[[(5S)-5-[[[3,5-bis(trifluoromethyl)phenyl]methyl](2-methyl-2H-tetrazol-5-yl)amino]-2,3,4,5-tetrahydro-7,9-dimethyl-1H-1-benzazepin-1-yl]methyl]-cyclohexanecarboxylic acid] | non-hygroscopic | 97.3% | 91.3% | F % (AUC Extrap.) ± sd [3]: 38 ± 4%; Cmax [3]: 208 ± 41 ng/mL; Tmax [3]: 3.5 ± 1.7 h; % HDL cholesterol increase at 8 hr (HDL cholesterol): 129.7. %; inhibition at 30 mg/kg (human CETP): 98.6%
Cc1cc2c(c(C)c1C(F)(F)F)N(CC1CCC(CC(=O)O)CC1)CCC[C@@H]2N(Cc1cc(C(F)(F)F)cc(C(F)(F)F)c1)c1nnn(C)n1 (stereo partly drawn) [Compound 15, reference compound] |  | 100.4% | 99.1% | F % (AUC Extrap.) ± sd [3]: 8 ± 3%; Cmax [3]: 85 ± 43 ng/mL; Tmax [3]: 5 h
Cc1cc2c(cc1C(F)(F)F)N(C[C@H]1CC[C@H](CC(=O)O)CC1)CCC[C@@H]2N(Cc1cc(C(F)(F)F)cc(C(F)(F)F)c1)c1nnn(C)n1 [Compound 13, (4-{5-[(3,5-Bis-trifluoromethyl-benzyl)-(2-methyl-2H-tetrazol-5-yl)-amino]-7-methyl-8-trifluoromethyl-2,3,4,5-tetrahydro-benzo[b]azepin-1-ylmethyl}-cyclohexyl)-acetic acid] |  | 14.5% | 0% | 
